Measurements: ChEMBL document CHEMBL6182876, “Design, synthesis and preliminary structure-activity relationship of 2-iminothiazolidine-4-one derivatives against Schistosoma japonicum in vitro and in vivo” (Eur J Med Chem, 2025)

Columns and labels:
Schistosoma japonicum [1] = assay: Anti-schistosomal activity against adult Schistosoma japonicum assessed as worm mortality at 100 uM measured at 12 hrs relative to control; assay type: functional
Schistosoma japonicum [2] = assay: Anti-schistosomal activity against adult Schistosoma japonicum assessed as worm mortality at 100 uM measured at 4 hrs relative to control; assay type: functional
Schistosoma japonicum [3] = assay: Anti-schistosomal activity against adult Schistosoma japonicum assessed as worm mortality at 100 uM measured at 8 hrs relative to control; assay type: functional
Schistosoma japonicum [4] = assay: Anti-schistosomal activity against adult Schistosoma japonicum assessed as worm mortality at 100 uM measured at 72 hrs relative to control; assay type: functional
Schistosoma japonicum [5] = assay: Anti-schistosomal activity against adult Schistosoma japonicum assessed as worm mortality at 100 uM measured at 48 hrs relative to control; assay type: functional
Schistosoma japonicum [6] = assay: Anti-schistosomal activity against adult Schistosoma japonicum assessed as worm mortality at 100 uM measured at 24 hrs relative to control; assay type: functional
Schistosoma japonicum [7] = assay: Anti-schistosomal activity against adult Schistosoma japonicum measured at 72 hrs; assay type: functional, organism-based

| Compound | mortality at 100 µM (Schistosoma japonicum [1]) [%] | mortality at 100 µM (Schistosoma japonicum [2]) [%] | mortality at 100 µM (Schistosoma japonicum [3]) [%] | mortality at 100 µM (Schistosoma japonicum [4]) [%] | mortality at 100 µM (Schistosoma japonicum [5]) [%] | mortality at 100 µM (Schistosoma japonicum [6]) [%] | IC50 (Schistosoma japonicum [7]) [µM] |
| --- | --- | --- | --- | --- | --- | --- | --- |
| COc1ccccc1/C=C1\S/C(=N\c2ccc(C(F)(F)F)cc2)N(CCCN2CCN(C)CC2)C1=O | 0 | 0 | 0 | 70 | 10 | 0 |  |
| CCOC(=O)/C=C1\S/C(=N\c2ccccc2)N(CCCN(C)C)C1=O | 0 | 0 | 0 | 100 | 40 | 10 | 97.7 |
| CN1CCN(CCCN2C(=O)/C(=C/c3ccccc3Cl)S/C2=N\c2ccc(C(F)(F)F)cc2)CC1 | 0 | 0 | 0 | 40 | 0 | 0 |  |
| CCOC(=O)/C=C1\S/C(=N\c2ccccc2Br)N(CCCN2CCN(C)CC2)C1=O | 60 | 0 | 20 | 100 | 100 | 100 | 30.9 |
| CCOC(=O)/C=C1\S/C(=N\c2ccccc2)N(CCN2CCCC2)C1=O | 0 | 0 | 0 | 50 | 50 | 0 | > 100 |
| CN1CCN(CCCN2C(=O)/C(=C/c3cccc(Cl)c3)S/C2=N\c2ccc(C(F)(F)F)cc2)CC1 | 70 | 20 | 40 | 100 | 100 | 100 |  |
| CCOC(=O)/C=C1\S/C(=N\c2ccccc2)N(CCN2CCCCC2)C1=O | 0 | 0 | 0 | 50 | 10 | 0 | > 100 |
| CCOC(=O)/C=C1\S/C(=N\c2ccc([N+](=O)[O-])cc2)N(CCCN2CCN(C)CC2)C1=O | 0 | 0 | 0 | 100 | 100 | 10 | 72 |
| CCOC(=O)/C=C1\S/C(=N\c2ccc(CC)cc2)N(CCCN2CCN(C)CC2)C1=O | 10 | 0 | 0 | 100 | 100 | 60 |  |
| Cc1cccc(/C=C2\S/C(=N\c3ccc(C(F)(F)F)cc3)N(CCCN3CCN(C)CC3)C2=O)c1 | 0 | 0 | 0 | 100 | 90 | 20 |  |
| CCOC(=O)/C=C1\S/C(=N\c2cccc(Br)c2)N(CCCN2CCN(C)CC2)C1=O | 80 | 0 | 30 | 100 | 100 | 100 | 35.1 |
| COc1ccc(/C=C2\S/C(=N\c3ccc(C(F)(F)F)cc3)N(CCCN3CCN(C)CC3)C2=O)cc1 | 0 | 0 | 0 | 60 | 20 | 0 |  |
| COc1cccc(/C=C2\S/C(=N\c3ccc(C(F)(F)F)cc3)N(CCCN3CCN(C)CC3)C2=O)c1 | 20 | 0 | 0 | 100 | 100 | 70 |  |
| CCOC(=O)/C=C1\S/C(=N\c2cc(F)ccc2F)N(CCCN2CCN(C)CC2)C1=O | 0 | 0 | 0 | 100 | 100 | 30 | 31.2 |
| CCOC(=O)/C=C1\S/C(=N\c2ccc(OC)cc2)N(CCCN2CCN(C)CC2)C1=O | 0 | 0 | 0 | 30 | 10 | 0 | 95.7 |
| CCOC(=O)/C=C1\S/C(=N\c2ccccc2)N(CCN(C)C)C1=O | 0 | 0 | 0 | 10 | 0 | 0 | > 100 |
| CCOC(=O)/C=C1\S/C(=N\c2ccccc2C(F)(F)F)N(CCCN2CCN(C)CC2)C1=O | 100 | 0 | 40 | 100 | 100 | 100 | 33.2 |
